# From US7883889B2, “Antigen presenting cells, method for their preparation and their use for cancer vaccines” (priority 2001, dated 2011)
# Tests used:
# [1] = test system: B-EBV+ lymphoblastoid cell lines; experiment: RT-PCR analysis of CTA expressed by ADHAPI-Cells/B-EBV and control B-EBV cells; format: cell-based, human; conditions: 5-AZA-CdR: four pulses of 1 μM every 12 h, then 48 h culture (= ADHAPI-Cells/B-EBV)
# Method: B-EBV+ lymphoblastoid cell lines (7.5×10^5 cells/ml) were cultured in RPMI 1640 medium supplemented with 10% heat-inactivated foetal calf serum (or 10% heat-inactivated human AB serum) and 2 mM L-glutamine at 37° C. in a 5% CO2 humidified atmosphere, and pulsed four times with 1 μM 5-aza-2′-deoxycytidine (5-AZA-CdR) every 12 h; then, half of the culture medium was replaced with fresh medium and cultures were allowed to proceed for additional 48 h. Then cells were utilized for experimental procedures and/or frozen under viable conditions. Control cells (B-EBV cells) were cultured under similar experimental conditions but without pulses of 5-AZA-CdR.
# Experimental conditions and primers utilized to assess CTA expression on investigated cells were as follows: […]
# PHA+PWM-activated PBMC = experiment: RT-PCR analysis of CTA expressed by ADHAPI-Cells/PHA+PWM-PBMC and control PHA+PWM-PBMC; format: cell-based, human; conditions: 5-AZA-CdR: four pulses of 1 μM every 12 h, then 48 h culture (= ADHAPI-Cells/PHA+PWM-PBMC)
# Method: (§1) Experimental conditions and primers utilized to assess CTA expression on investigated cells were as follows:
# PBMC (1.5×10^6 cells/ml) were added with PHA-M (10 μg/ml), PWM (3 μg/ml), 100 UI/ml rhIL-2 and cultured for 48 h at 37° C. in a 5% CO2 humidified atmosphere in Basal Iscove's medium supplemented with 10% heat-inactivated human AB serum (or with 10% heat-inactivated autologous serum), 2 mM L-glutamine, 100 U/ml penicillin, 100 μg/ml streptomycin sulphate (complete medium).
# (§2) PHA+PWM-activated PBMC were pulsed four times with 1 μM 5-aza-2′-deoxycytidine (5-AZA-CdR) every 12 h; then, half of the culture medium was replaced with fresh complete medium without PHA or PWM and cultures were allowed to proceed for additional 48 h. Then cells were utilized for experimental procedures and/or frozen under viable conditions. Control cells (PHA+PWM-PBMC) were cultured under similar experimental conditions but without pulses of 5-AZA-CdR.
# [2] = test system: PWM-activated B-Lymphocytes; experiment: RT-PCR analysis of CTA expressed by ADHAPI-Cells/PWM-B and control PWM-B cells; format: cell-based, human; conditions: 5-AZA-CdR: four pulses of 1 μM every 12 h, then 48 h culture (= ADHAPI-Cells/PWM-B)
# Method: as §1
# Purified B-Lymphocytes (1.5×10^6 cells/ml) were added with PWM (3 μg/ml) and cultured for 48 h at 37° C. in a 5% CO2 humidified atmosphere in Basal Iscove's medium supplemented with 10% heat-inactivated human AB serum, 2 mM L-glutamine, 100 U/ml penicillin, 100 μg/ml streptomycin sulphate.
# as §2, with “PWM-activated B-Lymphocytes” for “PHA+PWM-activated PBMC”, “fresh” for “fresh complete”, “medium” for “medium without PHA or PWM”, “(PWM-B)” for “(PHA+PWM-PBMC)”
# PWM-activated PBMC = experiment: RT-PCR analysis of CTA expressed by ADHAPI-Cells/PWM-PBMC and control PWM-PBMC cells; format: cell-based, human; conditions: 5-AZA-CdR: four pulses of 1 μM every 12 h, then 48 h culture (= ADHAPI-Cells/PWM-PBMC)
# Method: as §1
# PBMC (1.5×10^6 cells/ml) were added with PWM (3 μg/ml) and cultured for 48 h at 37° C. in a 5% CO2 humidified atmosphere in Basal Iscove's medium supplemented with 10% heat-inactivated human AB serum, 2 mM L-glutamine, 100 U/ml penicillin, 100 μg/ml streptomycin sulphate.
# as §2, with “PWM-activated” for “PHA+PWM-activated”, “fresh” for “fresh complete”, “medium” for “medium without PHA or PWM”, “(PWM-PBMC)” for “(PHA+PWM-PBMC)”
# PHA-activated PBMC = experiment: RT-PCR analysis of CTA expressed by ADHAPI-Cells/PHA-PBMC and control PHA-PBMC; format: cell-based, human; conditions: 5-AZA-CdR: four pulses of 1 μM every 12 h, then 48 h culture (= ADHAPI-Cells/PHA-PBMC)
# Method: as §1
# PBMC (1.5×10^6 cells/ml) were added with PHA-M (10 μg/ml) and 100 UI/ml rhIL-2, and cultured for 48 h at 37° C. in a 5% CO2 humidified atmosphere in RPMI 1640 medium supplemented with 10% heat-inactivated foetal calf serum (or in Basal Iscove's medium supplemented with 10% heat-inactivated human AB serum), 2 mM L-glutamine, 100 U/ml penicillin, 100 μg/ml streptomycin sulphate (complete medium).
# as §2, with “PHA-activated” for “PHA+PWM-activated”, “PHA-M” for “PHA or PWM”, “(PHA-PBMC)” for “(PHA+PWM-PBMC)”
# [3] = test system: normal and malignant lymphoid cells; conditions: Shichijo S. et al Jpn. J. Cancer Res. 87, 751-756, 1996; cited from earlier work
# [4] = test system: NIH3T3-CD40L-activated PBMC; experiment: RT-PCR analysis of CTA expressed by ADHAPI-Cells/CD40L-B and control CD40L-B cells; format: cell-based, human; conditions: 5-AZA-CdR: four pulses of 1 μM every 12 h, restimulation with NIH3T3-CD40L, then 48 h (= ADHAPI-Cells/CD40L-B)
# Method: as §1
# PBMC (2×10^6 cells/ml) were co-cultured with semiconfluent, x-ray treated (75 Gy) NIH3T3-CD40L at 37° C. in a 5% CO2 humidified atmosphere, in Basal Iscove's medium supplemented with 10% heat-inactivated human AB serum, 2 mM L-glutamine, 2 ng/ml recombinant human (rh) interleukin 4 (rhIL-4), 50 μg/ml human transferrin, 5 μg/ml rh insulin, 5.5×10^−7 M cyclosporin A (CsA), 100 U/ml penicillin, and 100 μg/ml streptomycin sulphate (complete medium). After six days of incubation, PBMC were collected, washed twice with HBSS, resuspended at 1×10^6 cells/ml in complete medium and co-cultured for additional 3 days at 37° C. in a 5% CO2 humidified atmosphere with NIH3T3-CD40L freshly prepared as described above. This procedure was repeated every 2-3 days to a maximum culture time of 16-18 days.
# After 16-18 days of culture, activated PBMC were harvested and restimulated with NIH3T3-CD40L as described above; after an O/N incubation at 37° C. in a 5% CO2 humidified atmosphere, cultures were pulsed four times with 1 μM 5-aza-2′-deoxycytidine (5-AZA-CdR) every 12 h; then, cells were harvested and restimulated with NIH3T3-CD40L as described above and cultures were allowed to proceed for additional 48 h. Then cells were utilized for experimental procedures and/or frozen under viable conditions. Control cells (CD40L-B cells) were cultured under similar experimental conditions but without pulses of 5-AZA-CdR.
compound,measurement,setting,value
"Nc1ncn([C@H]2C[C@H](O)[C@@H](CO)O2)c(=O)n1 [5-AZA-CdR, 5-aza-2′-deoxycytidine]",GAGE-1-6 expression (RT-PCR),[1],4/4
same,MAGE-1 expression (RT-PCR),[1],4/4
same,MAGE-3 expression (RT-PCR),[1],4/4
same,NY-ESO-1 expression (RT-PCR),[1],4/4
same,SSX-2 expression (RT-PCR),[1],4/4
same,GAGE-1-6 expression (RT-PCR),PHA+PWM-activated PBMC,7/7
same,MAGE-1 expression (RT-PCR),PHA+PWM-activated PBMC,7/7
same,MAGE-2 expression (RT-PCR),PHA+PWM-activated PBMC,7/7
same,MAGE-3 expression (RT-PCR),PHA+PWM-activated PBMC,7/7
same,MAGE-4 expression (RT-PCR),PHA+PWM-activated PBMC,7/7
same,NY-ESO-1 expression (RT-PCR),PHA+PWM-activated PBMC,7/7
same,SSX-2 expression (RT-PCR),PHA+PWM-activated PBMC,7/7
same,GAGE-1-6 expression (RT-PCR),[2],4/4
same,MAGE-1 expression (RT-PCR),[2],4/4
same,MAGE-2 expression (RT-PCR),[2],4/4
same,MAGE-3 expression (RT-PCR),[2],4/4
same,MAGE-4 expression (RT-PCR),[2],4/4
same,NY-ESO-1 expression (RT-PCR),[2],4/4
same,SSX-2 expression (RT-PCR),[2],4/4
same,GAGE-1-6 expression (RT-PCR),PWM-activated PBMC,3/4
same,MAGE-1 expression (RT-PCR),PWM-activated PBMC,4/4
same,MAGE-2 expression (RT-PCR),PWM-activated PBMC,3/4
same,MAGE-3 expression (RT-PCR),PWM-activated PBMC,4/4
same,MAGE-4 expression (RT-PCR),PWM-activated PBMC,3/4
same,NY-ESO-1 expression (RT-PCR),PWM-activated PBMC,4/4
same,SSX-2 expression (RT-PCR),PWM-activated PBMC,3/4
same,GAGE-1-6 expression (RT-PCR),PHA-activated PBMC,4/4
same,MAGE-1 expression (RT-PCR),PHA-activated PBMC,12/12
same,MAGE-2 expression (RT-PCR),PHA-activated PBMC,3/3
same,MAGE-3 expression (RT-PCR),PHA-activated PBMC,12/12
same,MAGE-4 expression (RT-PCR),PHA-activated PBMC,4/4
same,NY-ESO-1 expression (RT-PCR),PHA-activated PBMC,6/6
same,SSX-2 expression (RT-PCR),PHA-activated PBMC,6/6
same,"induction of MAGE 1, 2, 3 and 6",[3],induction of investigated CTA in selected samples tested
same,GAGE-1-6 expression (RT-PCR),[4],14/14
same,MAGE-1 expression (RT-PCR),[4],10/10
same,MAGE-2 expression (RT-PCR),[4],9/10
same,MAGE-3 expression (RT-PCR),[4],10/11
same,MAGE-4 expression (RT-PCR),[4],11/11
same,NY-ESO-1 expression (RT-PCR),[4],14/14
same,SSX-2 expression (RT-PCR),[4],13/14
